Experimental data from patent US5942494A, “Stimulation of gene expression and synthesis of heat shock protein 72/73 (HSP 70)” (The Trustees of Columbia University in the City of New York, priority 1996, dated 1999).
Numbered stars: 1 amine (or outer) side, 2 acyl side, 3 side chain; on linkers, the order of the positions; unused ones are H or OH. Bridge positions count the residues as written; N and C are the ends. Square brackets hold non-standard residues; d marks the D form. Peptide text beside a SMILES is read from it. I, II: the chains in the order shown. * marks the point of attachment. Actinocin(9to1) = Cc1c2oc3c(C)ccc(C(=O)[*:1])c3nc-2c(C(=O)[*:2])c(N)c1=O; Sta = CC(C)C[C@H](N)[C@@H](O)CC(=O)O; NMeV = CN[C@H](C(=O)O)C(C)C; Isovaleryl = CC(C)CC(=O)*; Cbz = O=C(OCc1ccccc1)*; Sar = CNCC(=O)O

Assays:
calpain = conditions: Rock, et al., 1994; cited from earlier work
cathepsin B = cathepsin B (Homo sapiens, UniProt P07858); conditions: Rock, et al., 1994; cited from earlier work
[1] = test system: 3-hydroxy-3-methylglutaryl-coenzyme A (HMG-CoA) reductase; conditions: Inoue, et al., 1991; cited from earlier work
Hsp70 = Hsp70 levels by denaturing immunoprecipitation of [3H]-leucine radiolabeled HepG2 cells; format: cell-based, human; conditions: for Induction of Hsp70 by protease inhibitors: HepG2, 4 hours pre-treatment, ALLN, ALLM 40 μg/ml, leupeptin, pepstatin A 50 μg/ml, E-64d 25 μg/ml, PMSF 1 mM, aprotinin 100 KIU/ml, Benz 1 mM, CIP 200 μM
Procedure: The HepG2 cell culture conditions were maintained as previously described (Dixon, et al., 1991). The cells were seeded into collagen-pre-coated dishes or six-well tissue culture plates and grown in complete medium containing minimum essential medium (MEM) with 0.1 mM nonessential amino acids, 1.0 mM sodium pyruvate, penicillin/streptomycin, and 10% fetal bovine serum. Cells were fed fresh complete medium every 3 days and maintained in a 5% CO2 incubator. All experiments were performed by using exponentially growing cells at 90-95% confluency. For heat shock treatment, the dishes were sealed with Parafilm and immersed in a water bath at 42° C. for indicated durations of time. Cells were incubated with ALLN alone at indicated concentrations or combined with other chemicals at 37° C. Cells were also incubated with different protease inhibitors alone at indicated concentrations or combined with other chemicals at 37° C.
(§1) HepG2 cells were preincubated for 4 hours in serum-free MEM and then radiolabeled with ^3 H-Leucine (150 μCi/ml) in a serum-free, leucine-free medium. Preincubation and labeling media each contained either 1.5% bovine serum albumin (BSA) alone, or BSA plus ALLN (40 μg/ml except as otherwise indicated), or BSA plus other protease inhibitors at concentrations indicated in the figure legends. At the indicated times, cells were removed from the 37° C. incubator and placed on ice, washed with cold phosphate-buffer saline (PBS) twice and lysed with lysis buffer containing 1% Triton X-100 (TX100), 1% deoxycholic acid (DOC) and 0.1% SDS in PBS containing proteinase inhibitors: 2 mM phenylmethylsulfonyl fluoride (PMSF); 2 μg/ml ALLN; 2 μg/ml leupeptin; and 2 μg/ml aprotinin. After a 30 min. incubation with lysis buffer at 4° C., the lysates were centrifuged at 14,000 g in a microcentrifuge for 5 min., and the supernatants were adjusted to 1% SDS concentration and boiled for 5 min. to denature the proteins. 1% TX100 was then added to dilute the lysates to a final concentration of 0.1% SDS. Cell lysates containing equal amounts of trichloroacetic acid (TCA)-insoluble radioactivity were used for immunoprecipitations by incubating with individual monoclonal antibody (1 μg/ml) for 2.5 hours at 4° C. Protein-A Sepharose 4B was added afterwards and the lysates incubated for another 1.5 hours at 4° C. to collect the immunocomplexes. After washing four times with 1×NET buffer (containing 0.5% TX100, 0.1% SDS), the immunocomplexes were mixed with sample buffer and boiled for 5 min. Following centrifugation, the supernatants were aliquoted for scintillation counting and for 3-15% gradient polyacrymide gel electrophoresis (SDS-PAGE) . The gels were later subjected to fluorography. All values are presented as the mean ± S.D. from three individual experiments except as otherwise indicated.
Denaturing immunoprecipitation was chosen because Hsp70 is a major cytosolic chaperone protein and it is co-immunoprecipitated with a number of other proteins under non-denaturingconditions (Beckmann, et al., 1990; Zhou, et al., 1995).

apoB = conditions: Sakata, et al., 1993, unpublished data; cited from earlier work
proteasomes = conditions: Rock, et al., 1994; cited from earlier work
HepG2 cells = assay: Total incorporation of radiolabel (TCA cpm) as indicator of cell toxicity, HepG2; format: cell-based, human; conditions: HepG2, 4 hours; MG132 10 or 30 μM; lactacystin 10 μM
Procedure: as §1

hsp70 (hsp72) mRNA = assay: Northern blot of hsp70 (hsp72) mRNA in HepG2 cells; format: cell-based, human; conditions: with ALLN 40 μg/ml, 4 hours; actinomycin D 10 μg/ml; cycloheximide 50 μg/ml
Procedure: HepG2 cells were treated with serum-free MEM containing either 1.5% BSA alone (Control, lane1), BSA plus 40 μg/ml of ALLN (ALLN, lane2), ALLN and 10 μg/ml of actinomycin D (A+AD, lane3), or ALLN and 50 μg/ml of cycloheximide (A+CXM, lane4). After 4 hours treatment at 37° C., cells were harvested. (B). HepG2 cells were treated with 40 μg/ml of ALLN in the serum-free MEM for up to 0 hour (lane1), 1 hour (lane2), 2 hours (lane3), and 3 hours (lane4) and then harvested without recovery. Or after treatment for 3 hours in the presence of ALLN as above, the ALLN containing medium were removed, cells were washed and fed fresh medium containing only BSA for recovery of up to 1 hour (lane5), 3 hours (lane6), 5 hours (lane7) or 7 hours (lane8). The total RNA was prepared, and equal amounts of the samples were loaded and run on a 1% formaldehyde-agarose gel, blotted onto a nylon membrane, and subsequently hybridized with specific synthetic oligonucleotide probes for hsp70 mRNA as described under Experimental Details. The position of 28S and 18S rRNA are shown for reference.
Total RNA was prepared using the procedure of Chomczynski and Sacchi (Chomczynski, et al., 1987) and a commercially prepared reagent, TRISOLV™ (Biotecx Laboratories Inc., Tex.) . Equal amounts of tRNA samples (10 μg) were size-fractionated on a 1% agarose-formaldehyde gel according to the methods described (Maniatis, et al., 1982) and transferred to a piece of QIAGEN plus nylon membrane. To determine loading and transfer efficiency, RNA was stained with ethidium bromide before and after transfer. The membrane was baked for 30 min. at 80° C. in vacuo (a vacuum) followed by UV cross-linking. It was then incubated for 4 hours at 65° C. in a prehybridization mixture containing 10% dextran sulfate, 1% SDS, 1M sodium chloride, 50 mM Tris-HCl (pH 7.5) and 100 μg/ml denatured salmon sperm DNA. Hybridization was carried out for 18 hours at 65° C. in the same buffer with a ^32 P-labeled (1×10^6 cpm/ml) 40-mer oligonucleotide probe to the untranslated 5' region of a human hsp70 gene (Oncogene Science). […] The membrane was then washed four times with 2×SSC, 0.1% SDS at room temperature, one time at 65° C. for 30 min., and one time at room temperature again for 5 min., and finally rinsed with 2×SSC at room temperature. This membrane was air dried and exposed to X-ray film at -80° C. for 48 hours.
Total RNA was isolated from HepG2 cells which had been incubated for 4 hours at 37° C. (FIG. 5A) with MEM containing BSA alone (Control, lane1), BSA plus 40 μg/ml of ALLN (ALLN, lane2), BSA plus ALLN and […] of actinomycin D (A+AD, lane3) or BSA plus ALLN and 50 μg/ml of cycloheximide (A+CXM, lane4). A radioprobe containing a unique sequence specific for the 5' untranslated region of hsp72 (inducible form) (Freeman et al., 1993) was used for Northern blot analysis.

HSF1 = assay: EGS cross-linking and Western blot of HSF1 oligomeric forms in HepG2 cells; format: cell-based, human; conditions: cycloheximide 50 μg/ml with ALLN 40 μg/ml, 2 hours
Procedure: FIGS. 6A-6B: ALLN affects the trimerization of HSF. HepG2 cells were treated with serum-free MEM containing 1.5% BSA for 2 hours at 37° C. without any additions (lane1), at 37 ° C. but containing 40μg/ml of ALLN in the medium (lane2), at 37° C. in a medium containing both ALLN and 50 μg/ml of cycloheximide (lane3) , at 42° C. alone (lane4), or at 42° C. plus cycloheximide in the medium (lane5). Cell lysates were prepared as described under Experimental Details. The lysates were either directly run on the SDS-PAGE (A) to show the steady-state protein levels of HSF1 or subjected to cross-linking with ethylene glycol bis sucrinimidylsuccinate (EGS) before running the gel (B) to show the oligomeric forms of HSF1. The proteins were then transfered to a nitrocellulose membrane and immunoblotted with anti-human HSF1 antibody. Arrows on the right side indicates the monomeric, dimeric or trimeric forms of HSF1, respectively. This experiment was repeated three times with identical results.
For measurement of the steady-state HSF1 protein levels, whole cell extracts were prepared by lysing the cells directly with 2×SDS-sample buffer (Maniatis, et al., 1982). For chemical cross-linking experiments, whole-cell extracts were prepared as described (Mosser, et al., 1988). Briefly, the cold PBS-washed cell pellets were quickly and repeatedly frozen in liquid nitrogen. […]

## CSCC[C@@H](C=O)NC(=O)[C@H](CC(C)C)NC(=O)[C@H](CC(C)C)NC(C)=O [ALLM, N-acetyl-leucyl-leucyl-methioninal] (Ac-Leu-Leu-Met-aldehyde)
calpain
  Activity against calpain: significant activities
Cathepsin B
  Activity against cathepsin B: significant activities
[1]
  Protection of HMG-CoA reductase: less effectively
Hsp70; HepG2, 40 μg/ml, 4 hours
  Ability to induce Hsp70 levels compared with ALLN: less ability to induce Hsp70 levels
Hsp70
  Induction of Hsp70 by protease inhibitors: significantly induce
apoB
  Protection of apoB: less effectively
proteasomes
  Inhibition of proteasomes: potent inhibitors

## CC(=O)N[C@@H](CC(C)C)C(=O)N[C@@H](CC(C)C)C(=O)N[C@H](C=O)CCCNC(=N)N [Leupeptin, leupeptin]
Hsp70
  Induction of Hsp70 by protease inhibitors: ineffective

## CC(C)C[C@@H](C=O)NC(=O)[C@H](CC(C)C)NC(=O)[C@H](CC(C)C)NC(=O)OCc1ccccc1 [MG132, Cbz-leucyl-leucyl-leucinal] (Cbz-Leu-Leu-Leu-aldehyde)
HepG2 cells
  Toxicity to the cells (TCA-precipitable radioactivities): without obvious toxicity
Hsp70; HepG2, 4 hours, MG132 10 μM or 30 μM, lactacystin 10 μM, 30 min radiolabeling
  Induction of Hsp70 levels by proteasome inhibitors: induced Hsp70 levels dramatically

## O=S(=O)(F)Cc1ccccc1 [PMSF, phenylmethylsulfonyl fluoride]
Hsp70
  Induction of Hsp70 by protease inhibitors: No induction

## Cc1c2oc3c(C)ccc(C(=O)N[C@@H]4C(=O)N[C@H](C(C)C)C(=O)N5CCC[C@H]5C(=O)N(C)CC(=O)N(C)[C@@H](C(C)C)C(=O)O[C@@H]4C)c3nc-2c(C(=O)N[C@@H]2C(=O)N[C@H](C(C)C)C(=O)N3CCC[C@H]3C(=O)N(C)CC(=O)N(C)[C@@H](C(C)C)C(=O)O[C@@H]2C)c(N)c1=O [actinomycin D] (I: T[dV]P[Sar][NMeV] / II: T[dV]P[Sar][NMeV]; ester I:1-I:C, II:1-II:C; linker I:N-II:N via Actinocin(9to1))
hsp70 (hsp72) mRNA
  Effect of co-treatment on ALLN-induced hsp70 (hsp72) mRNA: abolished the effects of ALLN

## C[C@@H]1C[C@@H]([C@H](O)CC2CC(=O)NC(=O)C2)C(=O)[C@@H](C)C1 [cycloheximide]
hsp70 (hsp72) mRNA
  Effect of co-treatment on ALLN-induced hsp70 (hsp72) mRNA: abolished
HSF1
  Effect of co-treatment on ALLN-induced HSF1 trimerization: abolished the effect of ALLN on HSF1 trimerization

## CC(C)CC(=O)N[C@H](C(=O)N[C@H](C(=O)N[C@@H](CC(C)C)[C@@H](O)CC(=O)N[C@@H](C)C(=O)N[C@@H](CC(C)C)[C@@H](O)CC(=O)O)C(C)C)C(C)C [pepstatin] (Isovaleryl-VV[Sta]A[Sta]-OH)
Hsp70
  Induction of Hsp70 by protease inhibitors: No induction

## aprotinin
Hsp70
  Induction of Hsp70 by protease inhibitors: No induction
